Reference: PMC9095466 (Nature, 2022)
“And” between values parts separate entries of the source, which are not always exact repeats. Identical values can stand only once. Like-named read-outs stand apart in the source and are kept apart here.

What was measured:
mouse TMPRSS2 = mouse TMPRSS2 (Mus musculus, UniProt Q9JIQ8); test: cell-based
SARS-CoV-2 P.1 (Gamma) = test: microbe, parasite or virus in culture; assay type: cell-based; settings: Brazil
[1] = system: SARS-CoV-2 B.1.617.2 (Delta); test: microbe, parasite or virus in culture; assay type: cell-based; settings: India
SARS-CoV-2 VOCs = test: SARS-CoV-2 VOC infection of Calu-3 cells, summary over all VOCs; assay type: cell-based; settings: Severe acute respiratory syndrome coronavirus 2, range over VOCs
[2] = Cytotoxicity assay (Cell Titer-Glo 2.0) in Vero E6 cells; assay type: cell-based; settings: African green monkey
Protocol: Calu-3 and Vero E6 cells (2500 or 10,000 cells for samples, 80–20,000 cells for standard curve) were seeded in 96-well plates. Following a 24-h incubation at 37 °C, 5% CO2, cells were washed with D-PBS and compounds added (10 µM) for an additional 24-h incubation. Cellular viability was assessed using Cell Titer-Glo 2.0 Cell Viability Assay (Promega) according to the manufacturer’s instructions. The number of viable cells was extrapolated using the standard curve. Cellular viability in Vero E6 cells was expressed relative (%) to vehicle-treated cells. Data are from four independent experiments (mean ± s.d.).

SARS-CoV-2 (VIDO) = test: microbe, parasite or virus in culture; assay type: cell-based; settings: colonoids pretreated 3 h with 100 nM, infected 3 days, vs DMSO-treated
[3] = system: SARS-CoV-2 (USA-WA1/2020, lineage A); design: species or system K18-hACE2 mice; settings: mouse, in vivo
[4] = system: SARS-CoV-2 (USA-WA1/2020, lineage A); test: K18-hACE2 mouse model of SARS-CoV-2, IHC of nucleocapsid with digital image analysis; assay type: in vivo, K18-hACE2 mice; settings: for Num Positive per mm^2 (IHC) / Positive % (IHC): Lung, Figure 5 Panel G, individual animals
Protocol: (§1) To detect viral antigen, sections were labelled with anti-SARS-CoV-2 nucleocapsid protein rabbit IgG monoclonal antibody (GeneTex; GTX635679) at a 1:5,000 dilution and processed using a Leica Bond Max automated IHC stainer. Leica Bond Polymer Refine Detection (Leica; DS9800) with DAB was used as the chromogen. Image acquisition was performed using a Roche Ventana DP200 slide scanner. Digital image analysis was performed using QuPath software[65],[66] v.0.2.3. Tissues were annotated to include all available lung tissue or all brain tissue excluding cerebellum, as cerebellar tissue was not available for all mice. Following annotation, automated detection was performed using automated SLIC superpixel segmentation with a DAB mean detection threshold of 0.18892.

[5] = system: SARS-CoV-2 (USA-WA1/2020, lineage A); assay type: in vivo, K18-hACE2 mice
[6] = system: SARS-CoV-2 B.1.617.2 (Delta); assay type: in vivo, K18-hACE2 mice; settings: for PFU/g / PFU/mL: lung, plaque assay, N-0385 12h PI, individual mice
[7] = system: SARS-CoV-2 B.1.617.2 (Delta); test: K18-hACE2 mice infected with Delta VOC, IHC of nucleocapsid in lung; assay type: in vivo
Protocol: as §1

[8] = system: SARS-CoV-2 (USA-WA1/2020, lineage A); test: K18-hACE2 mouse model of SARS-CoV-2, H&E histopathology of lung and brain; settings: 8-day regimen
Protocol: (§2) For histological examination, mouse lungs and brains were collected directly after euthanasia and placed in 10% formalin for more than 72 h, after which tissues were embedded in paraffin. Tissue sections (4 μm) were analysed after staining with H&E and scored blinded by an anatomic pathologist. For lung, scores were applied based on the percentage of each tissue type (alveolus, vessels and so on) affected using the following criteria: (0) normal; (1) less than 10% affected; (2) 10–25% affected; (3) 26–50% affected; and (4) more than 50% affected[64]. Assessment of lung pathology in K18-hACE2 mice infected with the SARS-CoV-2 B.1.617.2 (Delta) VOC after single-dose treatment was performed on IHC sections counterstained with haematoxylin. For brains, histological scoring was assessed for perivascular inflammation using the most severely affected vessel and the following criteria: (0) no perivascular inflammation; (1) incomplete cuff one cell layer thick; (2) complete cuff one cell layer thick; (3) complete cuff two to three cells thick; and (4) complete cuff four or more cells thick. Necrotic cells in the neuroparenchyma were assessed per 0.237 mm^2 field using the most severely affected area and the following criteria: (0) no necrotic cells; (1) rare individual necrotic cells; (2) fewer than 10 necrotic cells; (3) 11 to 25 necrotic cells; (4) 26 to 50 necrotic cells; and (5) greater than 50 cells.

[9] = system: SARS-CoV-2 B.1.617.2 (Delta); test: K18-hACE2 mice infected with Delta VOC, lung pathology scores on IHC sections; settings: individual mice, single dose 12 hpi, 3 DPI
Protocol: as §2

[10] = individual mice, 8-day regimen, tissue at death or end-point
[11] = Figure S8 C, tissue plaque assay, Females, individual animals
[12] = Figure S8 C, tissue plaque assay, Males, individual animals
[13] = Males, Figure 5 Panel F, individual animals
[14] = females, Figure 5 Panel F, individual animals
[15] = individual mice, tissue at death or end-point

mouse TMPRSS2, sequence (Q9JIQ8 whole entry): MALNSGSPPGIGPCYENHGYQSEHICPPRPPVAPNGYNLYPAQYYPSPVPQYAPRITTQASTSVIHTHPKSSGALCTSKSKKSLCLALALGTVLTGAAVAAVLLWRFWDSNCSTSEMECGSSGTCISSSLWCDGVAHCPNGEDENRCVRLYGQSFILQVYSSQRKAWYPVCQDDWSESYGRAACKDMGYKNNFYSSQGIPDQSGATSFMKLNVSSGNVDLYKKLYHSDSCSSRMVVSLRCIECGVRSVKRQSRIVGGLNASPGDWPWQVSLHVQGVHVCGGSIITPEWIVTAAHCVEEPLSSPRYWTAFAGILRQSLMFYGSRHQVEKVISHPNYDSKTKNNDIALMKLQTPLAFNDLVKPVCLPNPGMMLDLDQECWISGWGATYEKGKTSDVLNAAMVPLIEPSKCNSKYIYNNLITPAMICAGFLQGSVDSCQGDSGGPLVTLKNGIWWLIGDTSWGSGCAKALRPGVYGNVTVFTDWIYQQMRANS

Compound: CS(=O)(=O)NC(CCC(N)=O)C(=O)NC(Cc1ccccc1)C(=O)NC(CCCNC(=N)N)C(=O)c1nc2ccccc2s1 (stereo not shown) [Compound N-0385, Ms-QFR-kbt]
- IC50 (mouse TMPRSS2; Vero E6 cells transfected with mTMPRSS2, 24 h, mean ± SD, n = 3, read-out: mouse TMPRSS2 (mTmprss2) activity IC50): 12.3 ± 1.9 nM
- IC50 (mouse TMPRSS2; mTMPRSS2, mean of independent experiments, Figure S1C, read-out: IC50 Mean): 12.3 nM
- IC50 (mouse TMPRSS2; mTMPRSS2, single experiments N1-N3, Figure S1C, read-out: IC50 determined from independant experiments): 12.2 nM and 14.3 nM and 10.4 nM
- infection, dose response Figure 3c (nucleocapsid) (SARS-CoV-2 P.1 (Gamma); log [C] (nM) 0.20412): 100 and 81.7088 and 65.1564
- infection, dose response Figure 3d (dsRNA) (SARS-CoV-2 P.1 (Gamma); log [C] (nM) 0.20412): 75.4607 and 65.7035 and 100 and 82.6067
- infection, dose response Figure 3d (dsRNA) (SARS-CoV-2 P.1 (Gamma); log [C] (nM) 3): 8.633
- infection, dose response Figure 3c (nucleocapsid) (SARS-CoV-2 P.1 (Gamma); log [C] (nM) -0.49485): 100 and 84.3433
- infection, dose response Figure 3d (dsRNA) (SARS-CoV-2 P.1 (Gamma); log [C] (nM) -0.49485): 100 and 92.9624 and 97.3601
- infection, dose response Figure 3c (nucleocapsid) (SARS-CoV-2 P.1 (Gamma); log [C] (nM) -1.19382): 91.5649 and 100 and 99.1769
- infection, dose response Figure 3d (dsRNA) (SARS-CoV-2 P.1 (Gamma); log [C] (nM) -1.19382): 98.3176 and 96.7175 and 100 and 97.435
- infection, dose response Figure 3c (nucleocapsid) ([1]; log [C] (nM) 0.20412): 60.9172 and 87.9076 and 85.6813 and 84.0612
- infection, dose response Figure 3d (dsRNA) ([1]; log [C] (nM) 0.20412): 68.4547 and 86.2131 and 100
- infection, dose response Figure 3d (dsRNA) ([1]; log [C] (nM) 3): 5.293 and 4.1962
- infection, dose response Figure 3c (nucleocapsid) ([1]; log [C] (nM) -0.49485): 94.4352 and 99.5627 and 82.7139
- infection, dose response Figure 3d (dsRNA) ([1]; log [C] (nM) -0.49485): 78.2794 and 100
- infection, dose response Figure 3c (nucleocapsid) ([1]; log [C] (nM) -1.19382): 98.0243 and 101.283 and 99.1734 and 90.3686
- infection, dose response Figure 3d (dsRNA) ([1]; log [C] (nM) -1.19382): 100 and 84.9713
- EC50 (SARS-CoV-2 VOCs; read-out: EC50 against all VOCs, dsRNA staining): 2.6 to 26.5 nM
- EC50 (SARS-CoV-2 VOCs; read-out: EC50 against all VOCs, nucleocapsid staining): 2.1 to 13.9 nM
- viability at 24 h, 10 µM ([2]; 10 μM compound, 24 h, relative to vehicle (DMSO 0.01%), single experiments N1-N4, read-out: % Viability of Vero E6 cells): 127%
- viability at 24 h, 10 µM ([2]; % Viability of Vero E6 cells): 100%
- inhibition at 0.1 µM (SARS-CoV-2 (VIDO); Severe acute respiratory syndrome coronavirus 2, read-out: inhibition of SARS-CoV-2 infection in colonoids): > 99%
- inhibition of SARS-CoV-2 infection in colonoids (SARS-CoV-2 (VIDO)): complete inhibition
- average weight loss at 6 dpi [3]: 3%
- survival [3]: 100%
- survival to the end-point (14 dpi) [3]: 70%
- weight gain at 6 dpi [3]: 1%
- weight gain at time of death or the study end-point [3]: 2%
- weight loss at the study end-point [3]: 3%
- Num Positive per mm^2 (IHC) ([4]; Females): 5.547 per mm^2 and 9.942 per mm^2 and 13.6 per mm^2 and 13.27 per mm^2 and 7.069 per mm^2
- Positive % (IHC) ([4]; Females): 0.0549% and 0.0981% and 0.1335% and 0.1309% and 0.07%
- Num Positive per mm^2 (IHC) ([4]; Males): 19.22 per mm^2 and 9.103 per mm^2 and 13.04 per mm^2 and 20.75 per mm^2 and 10.41 per mm^2
- Positive % (IHC) ([4]; Males): 0.1899% and 0.0899% and 0.1288% and 0.204% and 0.1028%
- Brain No. Positive (IHC detections) [4, 10]: 113 and 131 and 205 and 255 and 133 and 201 and 429346 and 137295 and 271623 and 125
- Brain No. Positive per mm^2 [4, 10]: 2.79 per mm^2 and 3.006 per mm^2 and 3.517 per mm^2 and 4.198 per mm^2 and 3.156 per mm^2 and 4.077 per mm^2 and 7967.3 per mm^2 and 2771 per mm^2 and 5985.4 per mm^2 and 3.495 per mm^2
- Brain Positive % [4, 10]: 0.0277% and 0.0298% and 0.035% and 0.0417% and 0.0314% and 0.0404% and 79.52% and 27.59% and 59.16% and 0.0347%
- Lung No. Positive (IHC detections) [4, 10]: 192 and 131 and 152 and 95 and 269 and 3067 and 1648 and 28511 and 272
- Lung No. Positive per mm^2 [4, 10]: 6.545 per mm^2 and 5.06 per mm^2 and 8.682 per mm^2 and 7.096 per mm^2 and 3.624 per mm^2 and 7.345 per mm^2 and 133.68 per mm^2 and 86.7 per mm^2 and 861.5 per mm^2 and 8.911 per mm^2
- Lung Positive % [4, 10]: 0.065% and 0.0502% and 0.0856% and 0.0701% and 0.0366% and 0.0726% and 1.322% and 0.8535% and 8.502% and 0.088%
- reduction of IHC staining (nucleocapsid) in lung at 3 dpi ([4]; intranasal once daily day −1 to day 2, vs saline-treated mice): 98%
- PFU/g [5, 11]: 0 PFU/g
- PFU/mL [5, 11]: 0 PFU/mL
- PFU/g [5, 12]: 0 PFU/g and 4852.94 PFU/g and 5882.35 PFU/g and 11764706 PFU/g
- PFU/mL [5, 12]: 0 PFU/mL and 970.588 PFU/mL and 1176.47 PFU/mL and 2352941 PFU/mL
- Average Plaques ([5]; Males, Figure 5 Panel F, at the Dilution Factor, individual animals): 53.25 and 0
- PFU/g [5, 13]: 2662500 PFU/g and 0 PFU/g
- PFU/mL [5, 13]: 532500 PFU/mL and 0 PFU/mL
- Average Plaques ([5]; endpoint plaque assay (Panel H), females, individual animals): 0
- PFU/g ([5]; endpoint plaque assay (Panel H), females, individual animals, tissue resuspended at 5ul/mg): 0 PFU/g
- Average Plaques ([5]; endpoint plaque assay (Panel H), males, individual animals): 0
- PFU/g ([5]; endpoint plaque assay (Panel H), males, individual animals, tissue resuspended at 5ul/mg): 0 PFU/g
- Average Plaques ([5]; females, Figure 5 Panel F, at the Dilution Factor, individual animals): 21 and 0 and 7.75
- PFU/g [5, 14]: 10500000 PFU/g and 0 PFU/g and 387500 PFU/g
- PFU/mL [5, 14]: 2100000 PFU/mL and 0 PFU/mL and 77500 PFU/mL
- infectious virus in the lung at the study end-point ([5]; intranasal once daily day −1 to day 2, 14 dpi): No infectious virus was detected
- PFU/mL ([5]; mouse, in vivo): 0 PFU/mL
- reduction of lung viral titres (plaque assay) at 3 dpi ([5]; mouse, in vivo): 97%
- PFU/g ([6]; Females): 30000000 PFU/g and 0 PFU/g and 275000 PFU/g and 1000 PFU/g
- PFU/mL ([6]; Females): 6000000 PFU/mL and 0 PFU/mL and 55000 PFU/mL and 200 PFU/mL
- PFU/g ([6]; Males): 275000 PFU/g and 32500 PFU/g and 1750 PFU/g and 0 PFU/g
- PFU/mL ([6]; Males): 55000 PFU/mL and 6500 PFU/mL and 350 PFU/mL and 0 PFU/mL
- reduction in lung viral titres at 3 dpi ([6]; mouse, in vivo): more than 50%
- Num Positive events/mm^2 (nucleocapsid IHC, lung) ([7]; individual mice (f = female, m = male), single dose 12 hpi, 3 dpi, Fig. 6f, listed as n385): 2181.1 events/mm^2 and 5.047 events/mm^2 and 10.41 events/mm^2 and 9.171 events/mm^2 and 935.88 events/mm^2 and 0.9105 events/mm^2 and 3.523 events/mm^2 and 51.75 events/mm^2 and 3.842 events/mm^2 and 20.48 events/mm^2
- reduction in IHC viral staining in lung at 3 dpi ([7]; single dose at 12 hpi, vs saline-treated group): more than 50%
- Brain lesions (H&E) ([8]; N-0385: surviving mice, day 14): absent
- Perivascular infiltrates in CNS score ([8]; individual mice, most severely affected vessel): 0 and 1
- Alveolar cells score [8, 15]: 2 ((2) 10–25% affected) and 1 ((1) <10% affected) and 0
- Alveolar edema score [8, 15]: 0
- Alveolar fibrin score [8, 15]: 0
- Fibrosis score [8, 15]: 2 ((2) 10–25% affected) and 1 ((1) <10% affected) and 0
- Interstitial infiltrates in lung score [8, 15]: 2 ((2) 10–25% affected) and 1 ((1) <10% affected) and 0
- Lymphoid hyperplasia score [8, 15]: 1 ((1) <10% affected) and 0
- Perivascular infiltrate in lung score [8, 15]: 3 ((3) 26–50% affected) and 1 ((1) <10% affected) and 0
- Type II pneumocyte hyperplasia score [8, 15]: 2 ((2) 10–25% affected) and 1 ((1) <10% affected) and 0 and 3 ((3) 26–50% affected)
- Alveolar cells score ([9]; IHC sections): 0 and 1 ((1) <10% affected)
- Interstitial infiltrates in lung score ([9]; IHC sections): 1 ((1) <10% affected) and 2 ((2) 10–25% affected)
- Perivascular infiltrate in lung score ([9]; IHC sections): 1 ((1) <10% affected) and 2 ((2) 10–25% affected) and 0 and 3 ((3) 26–50% affected)
- Type II pneumocyte hyperplasia score ([9]; IHC sections): 0 and 2 ((2) 10–25% affected) and 1 ((1) <10% affected)
- Total Score (lung pathology) ([9]; sum of scores): 2 and 6 and 3 and 1 and 7
